Experimental data: article PMC11476342 (Cancers, 2024)
“And” between values parts separate entries of the source, which are not always exact repeats. Equal entries are not always repeated. Where two headings read alike, the source gives them in different places.

Key:
[1] = tested on: HEK293; test: MTT cell viability assay, non-cancer cell line; type: cell-based, human; conditions: for reduction of cell viability: entinostat and/or JQ1 in the absence of cisplatin (Figure 15b,c)
Experimental: (§1) The cell viability for determination of IC50 values and synergism studies was analyzed by MTT assay as previously described. […] For preincubation experiments, 1600 c/w (cells per well) for J82 and 1200 c/w for J82 cisR were used. After the incubation time, 25 µL MTT (3-(4,5-dimethylthiazol-2-yl)-2,5-diphenyltetrazolium bromide, Serva, Heidelberg, Germany) solution (5 mg/mL in phosphate-buffered saline) was added. The formazan was dissolved in 75 µL DMSO, and the absorption was measured at 540 nm and 690 nm with a microplate reader (ThermoFisher Multiskan, Thermo Scientific, Wesel, Germany).

[2] = tested on: HBLAK; test: MTT cell viability assay, non-cancer cell line; type: cell-based, human; conditions: for reduction of cell viability: entinostat and/or JQ1 in the absence of cisplatin (Figure 15a)
Experimental: as §1

[3] = tested on: J82 cisR; test: MTT cell viability assay; type: cell-based, human
Experimental: as §1

[4] = tested on: T24 LTT; test: MTT cell viability assay; type: cell-based, human
Experimental: as §1

[5] = tested on: J82; test: MTT cell viability assay; type: cell-based, human
Experimental: as §1

[6] = tested on: T24; test: MTT cell viability assay; type: cell-based, human
Experimental: as §1

[7] = tested on: J82; test: RT-qPCR gene expression; type: cell-based, human; conditions: 48 h; ENT 0.316 µM; JQ1 1 µM; ENT + JQ1 0.316 + 1 µM
Description: (§3) RNA was isolated using the RNeasy Mini Kit (Qiagen, Hilden, Germany). Subsequently, the RNA was transcribed into cDNA using the High-Capacity cDNA Reverse Transcription Kit (Thermo Scientific, Wesel, Germany). For an RT-PCR, GoTaq qPCR Master Mix (Promega, Fitchburg, WI, USA) and a CFX96 Real-Time System (BIO-RAD, Hercules, CA, USA) were used. The relative changes in gene expression were normalized to the control genes GUSB (beta-glucuronidase), TBP (TATA binding protein), and HPRT1 (hypoxanthine–guanine phosphoribosyltransferase) by Vandesompele method [54].

[8] = tested on: J82 cisR; test: RT-qPCR gene expression; type: cell-based, human; conditions: 48 h; ENT 0.316 µM; JQ1 0.1 µM; ENT + JQ1 0.316 + 0.1 µM
Description: as §3

[9] = cited from earlier work; for bioavailability: OTX015: oral, in contrast to JQ1; for half-life: in vivo, OTX015 in contrast to JQ1
[10] = set-up: method as in PMID 33723398, PMID 29733771, PMID 27063977, PMID 27063978, PMID 26341814; conditions: patients; cited from earlier work
[11] = tested on: HDAC 1-3 and 6; set-up: method as in PMID 34582215; conditions: cited from earlier work
[12] = target: T1, HDAC 8 (Homo sapiens, UniProt Q9BY41); test: Enzyme HDAC inhibition assay; type: biochemical; conditions: recombinant enzyme, Boc-Lys-(Tfa)-AMC; read-out: HDAC8 IC50 ± SD
T1 construct: purchased Reaction Biology Corp (Malvern, PA, USA) KDA-21-481
T1 sequence (Q9BY41 1-377): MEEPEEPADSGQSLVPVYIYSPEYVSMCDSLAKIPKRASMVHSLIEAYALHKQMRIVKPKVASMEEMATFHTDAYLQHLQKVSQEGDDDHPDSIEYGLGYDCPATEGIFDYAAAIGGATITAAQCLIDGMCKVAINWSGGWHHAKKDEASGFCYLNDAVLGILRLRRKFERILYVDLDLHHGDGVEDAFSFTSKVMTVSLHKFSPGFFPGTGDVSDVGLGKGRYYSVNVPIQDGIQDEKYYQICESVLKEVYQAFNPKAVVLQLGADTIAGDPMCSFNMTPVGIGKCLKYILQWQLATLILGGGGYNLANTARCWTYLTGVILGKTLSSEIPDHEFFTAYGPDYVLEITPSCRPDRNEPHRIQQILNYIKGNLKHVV
Description: (§2) The human recombinant enzymes were ordered from Reaction Biology Corp (Malvern, PA, USA).

[13] = target: T2, HDAC 4 (Homo sapiens, UniProt P56524); test: Enzyme HDAC inhibition assay; type: biochemical; conditions: recombinant enzyme, Boc-Lys-(Tfa)-AMC; read-out: HDAC4 IC50 ± SD
T2 construct: purchased Reaction Biology Corp (Malvern, PA, USA) KDA-21-279
T2 sequence (P56524 whole entry): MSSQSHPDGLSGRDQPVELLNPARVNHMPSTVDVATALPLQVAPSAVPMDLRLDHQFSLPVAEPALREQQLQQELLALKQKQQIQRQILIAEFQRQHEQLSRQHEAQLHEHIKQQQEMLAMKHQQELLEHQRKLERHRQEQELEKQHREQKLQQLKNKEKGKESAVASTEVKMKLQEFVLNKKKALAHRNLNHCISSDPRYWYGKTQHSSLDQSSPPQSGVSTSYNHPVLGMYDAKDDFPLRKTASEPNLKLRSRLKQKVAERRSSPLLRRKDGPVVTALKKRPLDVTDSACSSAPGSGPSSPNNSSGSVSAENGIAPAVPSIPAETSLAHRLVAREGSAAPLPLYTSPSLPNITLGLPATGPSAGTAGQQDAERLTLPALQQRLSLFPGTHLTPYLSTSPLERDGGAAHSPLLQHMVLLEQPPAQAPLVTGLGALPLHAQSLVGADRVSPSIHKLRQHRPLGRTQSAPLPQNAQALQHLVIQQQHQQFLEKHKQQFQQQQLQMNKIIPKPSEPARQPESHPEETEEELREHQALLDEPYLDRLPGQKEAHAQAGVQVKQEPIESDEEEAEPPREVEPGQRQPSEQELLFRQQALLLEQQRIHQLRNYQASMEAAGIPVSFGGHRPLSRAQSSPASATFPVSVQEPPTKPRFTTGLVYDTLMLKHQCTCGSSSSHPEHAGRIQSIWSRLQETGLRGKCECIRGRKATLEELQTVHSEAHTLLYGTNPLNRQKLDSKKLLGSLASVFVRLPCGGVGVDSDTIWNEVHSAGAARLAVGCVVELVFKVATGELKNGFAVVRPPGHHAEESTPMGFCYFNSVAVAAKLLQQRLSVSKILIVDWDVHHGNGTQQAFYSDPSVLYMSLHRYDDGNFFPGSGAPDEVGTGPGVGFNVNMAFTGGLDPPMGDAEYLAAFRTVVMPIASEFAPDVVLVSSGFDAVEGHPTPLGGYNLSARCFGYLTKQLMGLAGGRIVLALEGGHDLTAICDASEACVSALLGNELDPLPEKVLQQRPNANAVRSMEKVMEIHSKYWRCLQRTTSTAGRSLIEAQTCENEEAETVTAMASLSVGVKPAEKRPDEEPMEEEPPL
Description: as §2

[14] = tested on: caspase 3/7; test: Activation of caspase 3/7 (CellEvent, high content screening); type: cell-based, human; conditions: single treatment, all four cell lines (J82, J82 cisR, T24, T24 LTT)
Experimental: Activation of caspase 3/7 was examined using the CellEvent Caspase-3/7 green detection reagent (Thermo Scientific, Wesel, Germany) according to the manufacturer’s instructions. The cells were seeded in 96-well-plates (Corning, Kaiserslautern, Germany) and treated with the indicated compounds for 48 h (J82 1600 c/w; J82 cisR 800 c/w; T24 1200 c/w; T24 LTT 3000 c/w). […] The supernatant was aspirated and a solution of CellEvent Caspase 3/7 green detection reagent (PBS, 1% heat inactivated fetal calf serum) was added to the cells for a final concentration of 2 µM. Hoechst 33342 (10 mg/mL in water, Sigma-Aldrich, Steinheim, Germany) was used for nuclei staining. The cells were incubated for 30 min at 37 °C and 5% CO2 before imaging by using the Thermo Fischer ArrayScan XTI high content screening (HCS) system with a 10 × magnification (Thermo Scientific, Wesel, Germany).

[15] = tested on: BRDs; set-up: method as in PMID 34582215; conditions: cited from earlier work
[16] = MTT, 72 h, compound alone, read-out: IC50 ± SD
[17] = read-out: Cisplatin IC50 ± SD, control, then cisplatin 72 h
[18] = 72 h co-incubation with 0.316 µM ENT
[19] = MTT, 72 h, compound alone, listed as cisplatin, read-out: IC50 ± SD
[20] = read-out: Cisplatin IC50 ± SD, control: untreated 48 h, then cisplatin 72 h
[21] = read-out: Cisplatin IC50 ± SD, control: untreated 48 h, then cisplatin 72 h, listed as cisplatin
[22] = Homo sapiens, HEK293, MTT, 72 h, compound alone, read-out: IC50 ± SD
[23] = Homo sapiens, MTT, 72 h, compound alone, read-out: IC50 ± SD
[24] = 48 h preincubation with the other inhibitor (ENT after 0.1 µM JQ1; JQ1 after 0.316 µM ENT), then another 72 h
[25] = 72 h co-incubation with the other epigenetic inhibitor: ENT with 0.1 µM JQ1, JQ1 with 0.316 µM ENT
[26] = Homo sapiens, 72 h, MTT, 72 h, compound alone, read-out: IC50 ± SD
[27] = Homo sapiens, control of the 48 h preincubation scheme, compound 72 h, read-out: IC50 ± SD
[28] = 48 h preincubation with the other inhibitor (ENT after 1 µM JQ1; JQ1 after 0.316 µM ENT), then another 72 h
[29] = 72 h co-incubation with the other epigenetic inhibitor: ENT with 1 µM JQ1, JQ1 with 0.316 µM ENT
[30] = Homo sapiens, J82, 72 h, MTT, 72 h, compound alone, read-out: IC50 ± SD
[31] = Homo sapiens, J82, control of the 48 h preincubation scheme, compound 72 h, read-out: IC50 ± SD
[32] = Homo sapiens, T-24, MTT, 72 h, compound alone, read-out: IC50 ± SD
[33] = 7.5 µM of 20, without cisplatin (Figure 10, S17)

N.N.[Cl][Pt][Cl] [Cisplatin, cisplatin]
IC50 [1, 16]: 3.36 ± 0.09 µM
IC50 [1, 17]: 6.26 ± 0.21 µM
IC50 [2, 16]: 1.71 ± 0.09 µM
IC50 [2, 17]: 3.38 ± 0.18 µM
SF ([3]; 72 h co-incubation with 0.1 µM JQ1): 0.98
SF [3, 18]: 1.60
SF ([3]; 72 h co-incubation with 0.316 µM ENT + 0.1 µM JQ1): 1.56
cisplatin-resistance factor ([3]; J82 cisR vs J82): 3.8
IC50 [3, 19]: 6.17 ± 0.23 µM
IC50 [3, 16]: 7.16 ± 0.24 µM
IC50 [3, 20]: 8.49 µM and 7.8 µM
IC50 [3, 21]: 7.64 ± 0.38 µM
SF [4, 18]: 1.71
SF ([4]; 72 h co-incubation with 0.316 µM ENT + 0.075 µM JQ1): 1.55
IC50 [4, 19]: 65.3 ± 4.17 µM
IC50 [4, 16]: 72.2 ± 3.57 µM
cisplatin-resistance factor ([4]; T24 LTT vs T24): 24
IC50 [4, 20]: 75 ± 2.85 µM
IC50 [4, 21]: 58.7 ± 2.6 µM
SF [5, 18]: 1.74
SF ([5]; 72 h co-incubation with 0.316 µM ENT + 1 µM JQ1): 3.05
SF ([5]; 72 h co-incubation with 1 µM JQ1): 1.90
IC50 [5, 19]: 2.49 ± 0.12 µM
IC50 [5, 16]: 1.87 ± 0.06 µM
IC50 [5, 20]: 2.16 µM and 3.02 µM
IC50 [5, 21]: 2.98 ± 0.21 µM
SF ([6]; 72 h co-incubation with 0.3 µM JQ1): 1.88
SF [6, 18]: 1.02
SF ([6]; 72 h co-incubation with 0.316 µM ENT + 0.3 µM JQ1): 1.54
IC50 [6, 19]: 1.97 ± 0.06 µM
IC50 [6, 16]: 2.99 ± 0.12 µM
IC50 [6, 20]: 4.15 ± 0.12 µM
IC50 [6, 21]: 3.23 ± 0.1 µM

Nc1ccccc1NC(=O)c1ccc(CNC(=O)OCc2cccnc2)cc1 [Entinostat, entinostat]
IC50 [1, 22]: 4.47 ± 0.77 µM
reduction of cell viability [1]: up to 20%
IC50 [2, 23]: 1.45 ± 0.18 µM
reduction of cell viability [2]: 60–65%
Bim gene expression, decadic logarithm of normalized expression [7]: -0.015
FOXO1 gene expression, decadic logarithm of normalized expression [7]: -0.054
FOXO3a gene expression, decadic logarithm of normalized expression [7]: -0.125
p53 gene expression, decadic logarithm of normalized expression [7]: -0.125
survivin gene expression, decadic logarithm of normalized expression [7]: -0.149
SF [3, 24]: 1.45
SF [3, 25]: 1.97
IC50 [3, 26]: 10.4 ± 0.94 µM
IC50 [3, 27]: 9.38 ± 0.89 µM
IC50 [3, 16]: 7.6 ± 0.59 µM
IC50 [4, 23]: 1.38 ± 0.1 µM
SF [5, 28]: 1.44
SF [5, 29]: 1.68
IC50 [5, 30]: 12.3 ± 1.08 µM
IC50 [5, 31]: 9.59 ± 0.81 µM
IC50 [5, 16]: 10.4 ± 0.89 µM
IC50 [6, 32]: 5.68 ± 0.51 µM
Bim gene expression, decadic logarithm of normalized expression [8]: -0.110
FOXO1 gene expression, decadic logarithm of normalized expression [8]: 0.087
FOXO3a gene expression, decadic logarithm of normalized expression [8]: -0.030
p21 gene expression, decadic logarithm of normalized expression [8]: 0.049
p53 gene expression, decadic logarithm of normalized expression [8]: -0.202
survivin gene expression, decadic logarithm of normalized expression [8]: -0.100

Cc1sc2c(c1C)C(c1ccc(Cl)cc1)=NC(CC(=O)OC(C)(C)C)c1nnc(C)n1-2 (stereo not drawn) [JQ1]
IC50 [1, 22]: 1.41 ± 0.26 µM
reduction of cell viability [1]: up to 20%
IC50 ([2]; Homo sapiens, 72 h, read-out: IC50 ± SD): 2.37 ± 0.41 µM
reduction of cell viability [2]: 60–65%
bioavailability [9]: limited
half-life [9]: very short
Bim gene expression, decadic logarithm of normalized expression [7]: 0.283
FOXO1 gene expression, decadic logarithm of normalized expression [7]: 0.260
FOXO3a gene expression, decadic logarithm of normalized expression [7]: 0.128
p21 gene expression, decadic logarithm of normalized expression [7]: 0.654
p53 gene expression, decadic logarithm of normalized expression [7]: -0.097
survivin gene expression, decadic logarithm of normalized expression [7]: -0.002
SF [3, 24]: 1.21
SF [3, 25]: 1.71
IC50 [3, 26]: 2.64 ± 0.52 µM
IC50 [3, 27]: 2.41 ± 0.51 µM
fold lower sensitivity of J82 than J82 cisR ([3]; MTT, 72 h): 8.4 fold
IC50 [3, 16]: 2.22 ± 0.41 µM
IC50 [4, 23]: 0.6 ± 0.08 µM
fold lower IC50 in T24 LTT than T24 ([4]; MTT, 72 h): 4 fold
SF [5, 28]: 1.28
SF [5, 29]: 0.84
IC50 [5, 30]: 21.5 ± 4.05 µM
IC50 [5, 31]: 21.6 ± 4.99 µM
IC50 [5, 16]: 18.8 ± 1.55 µM
IC50 [6, 32]: 2.29 ± 0.42 µM
Bim gene expression, decadic logarithm of normalized expression [8]: 0.534
FOXO1 gene expression, decadic logarithm of normalized expression [8]: 0.410
FOXO3a gene expression, decadic logarithm of normalized expression [8]: 0.438
p21 gene expression, decadic logarithm of normalized expression [8]: 0.581
p53 gene expression, decadic logarithm of normalized expression [8]: 0.347
survivin gene expression, decadic logarithm of normalized expression [8]: 0.435

Cc1sc2c(c1C)C(c1ccc(Cl)cc1)=NC(CC(=O)NCCCN1CCN(C)CC1)c1nnc(C)n1-2 (stereo not drawn) [JQ35]
IC50 [3, 26]: 1.49 ± 0.34 µM
IC50 [5, 30]: 69.5 ± 7.88 µM
fold-increased IC50 value compared to JQ1 ([5]; J82, MTT, 72 h): 3.7 fold

Cc1sc2c(c1C)C(c1ccc(Cl)cc1)=N[C@@H](CC(=O)Nc1ccc(O)cc1)c1nnc(C)n1-2 [OTX015]
IC50 [1, 22]: 1.98 ± 0.42 µM
dose-limiting toxicities [10]: anemia, thrombocytopenia, fatigue, and hyperbilirubinemia
bioavailability [9]: better
half-life [9]: extended
IC50 [3, 26]: 1.04 ± 0.13 µM
IC50 [5, 30]: 18.9 ± 2.82 µM

CCc1c(C(=O)Nc2cc(/C=C/C(=O)NO)ccc2OC)[nH]c(C)c1C(C)=O [compound 20]
inhibitory activity against HDAC 1-3 and 6 [11]: sub-micromolar
IC50 [12]: 6.03 µM
IC50 [13]: 207 µM
caspase 3/7 activation [14]: only weakly activated
decrease in cell viability [3, 33]: 60–70%
IC50 [3, 26]: 7 ± 0.49 µM
decrease in cell viability [4, 33]: 60–70%
IC50 [4, 23]: 4.66 ± 0.41 µM
decrease in cell viability [5, 33]: 60–70%
IC50 [5, 30]: 7.17 ± 0.57 µM
decrease in cell viability [6, 33]: 60–70%
IC50 [6, 32]: 6.95 ± 0.54 µM
inhibitory activity to BRDs [15]: single-digit micromolar range
